Measured values published in the supplement of paper PMC10307832.

Key:
Assay in all cases: relative viability (nuclei count vs DMSO), 5 days (fraction); higher = more cells survive
Idelalisib + Lapatinib = compound: CC[C@H](Nc1ncnc2[nH]cnc12)c1nc2cccc(F)c2c(=O)n1-c1ccccc1 [Idelalisib] + CS(=O)(=O)CCNCc1ccc(-c2ccc3ncnc(Nc4ccc(OCc5cccc(F)c5)c(Cl)c4)c3c2)o1 [Lapatinib] (partner 2 µM)
Method in brief: (§1)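 Lung cancer cell lines in 1536-well plates got either a single drug or a fixed anchor-drug dose together with five library-drug doses (not always all listed) in √10 steps, by pin tool, on the day after seeding. Nuclei were counted after 5 days, and relative viability is the treated-to-vehicle ratio of nuclei counts. Values are medians of duplicate plates.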

Idelalisib + Crizotinib = compound: CC[C@H](Nc1ncnc2[nH]cnc12)c1nc2cccc(F)c2c(=O)n1-c1ccccc1 [Idelalisib] + C[C@@H](Oc1cc(-c2cnn(C3CCNCC3)c2)cnc1N)c1c(Cl)ccc(F)c1Cl [Crizotinib] (partner 1 µM)
Method in brief: as §1

Pemetrexed + Foretinib = compound: Nc1nc2[nH]cc(CCc3ccc(C(=O)N[C@@H](CCC(=O)O)C(=O)O)cc3)c2c(=O)[nH]1 [Pemetrexed] + COc1cc2c(Oc3ccc(NC(=O)C4(C(=O)Nc5ccc(F)cc5)CC4)cc3F)ccnc2cc1OCCCN1CCOCC1 [Foretinib] (partner 0.25 µM)
Method in brief: as §1

Pemetrexed + Decitabine = compound: Nc1nc2[nH]cc(CCc3ccc(C(=O)N[C@@H](CCC(=O)O)C(=O)O)cc3)c2c(=O)[nH]1 [Pemetrexed] + Nc1ncn([C@H]2C[C@H](O)[C@@H](CO)O2)c(=O)n1 [Decitabine] (partner 2 µM)
Method in brief: as §1

Cell Line	relative viability (Idelalisib + Lapatinib; first compound 0.04 µM)	relative viability (Idelalisib + Lapatinib; first compound 0.1265 µM)	relative viability (Idelalisib + Lapatinib; first compound 0.4 µM)	relative viability (Idelalisib + Lapatinib; first compound 1.265 µM)	relative viability (Idelalisib + Lapatinib; first compound 4 µM)	relative viability (Idelalisib + Crizotinib; first compound 0.04 µM)	relative viability (Idelalisib + Crizotinib; first compound 0.1265 µM)	relative viability (Idelalisib + Crizotinib; first compound 0.4 µM)	relative viability (Idelalisib + Crizotinib; first compound 1.265 µM)	relative viability (Idelalisib + Crizotinib; first compound 4 µM)	relative viability (Pemetrexed + Foretinib; first compound 0.002 µM)	relative viability (Pemetrexed + Foretinib; first compound 0.006325 µM)	relative viability (Pemetrexed + Foretinib; first compound 0.02 µM)	relative viability (Pemetrexed + Foretinib; first compound 0.06325 µM)	relative viability (Pemetrexed + Foretinib; first compound 0.2 µM)	relative viability (Pemetrexed + Decitabine; first compound 0.002 µM)	relative viability (Pemetrexed + Decitabine; first compound 0.006325 µM)	relative viability (Pemetrexed + Decitabine; first compound 0.02 µM)	relative viability (Pemetrexed + Decitabine; first compound 0.06325 µM)	relative viability (Pemetrexed + Decitabine; first compound 0.2 µM)
LOU-NH91	0.82	0.737	0.67	0.725	0.75	0.791	0.711	0.677	0.68	0.727	0.941	0.915	0.992	0.709	0.434	0.811	0.78	0.798	0.66	0.578
NCI-H1651	0.707	1	0.577	0.825	0.868	0.919	0.861	0.846	0.864	0.876	0.673	0.772	0.826	0.754	0.737	0.525	0.593	0.631	0.404	0.653
A549	0.96	0.996	0.924	0.923	0.832	0.902	0.899	0.669	0.751	0.539	0.935	0.902	1.08	1.02	0.925	0.234	0.213	0.194	0.346	0.281
HCC-366	1.01	1.02	0.999	1.03	0.987	0.891	0.398	0.471	0.464	0.411	0.799	0.888	0.963	0.863	0.901	0.331	0.387	0.346	0.329	0.211
EKVX	0.21	0.234	0.184	0.201	0.186	0.83	0.897	0.633	0.753	0.752	0.733	0.795	1.05	0.908	0.491	0.405	0.257	0.368	0.316	0.325
NCI-H1993	0.816	0.887	0.76	0.802	0.84	0.873	0.893	0.879	0.834	0.73	0.806	0.838	0.74	0.774	0.811	0.619	0.661	0.622	0.576	0.461
NCI-H23	1.04	1.06	0.872	1.08	0.893	0.723	0.56	0.277	0.533	0.387	1.03	0.943	1.22	0.618	0.989	0.287	0.307	0.322	0.325	0.318
HCC-827	0.225	0.191	0.176	0.178	0.157	0.978	0.943	0.864	0.927	0.838	0.903	1.03	1.03	1.01	0.916	0.264	0.341	0.409	0.214	0.305
PC-3 [JPC-3]	0.455	0.49	0.439	0.44	0.36	1	1.04	0.94	0.98	0.881	0.93	1.05	1.02	1.05	1.01	0.765	0.845	0.956	0.837	0.857
NCI-H1355	1.06	1.1	0.751	0.972	0.888	1.21	1.13	0.977	0.988	0.902	0.864	0.956	1.05	1.01	0.948	0.33	0.354	0.336	0.332	0.355
NCI-H727	0.814	1.09	0.751	1.21	0.719	0.81	0.798	0.76	1	0.797	0.823	0.902	0.87	0.838	0.966	0.922	0.796	0.835	0.792	0.865
NCI-H1975	0.966	0.99	0.836	0.889	0.61	1.08	0.944	0.817	1	0.81	0.899	0.914	1.02	0.825	0.401	0.322	0.403	0.378	0.291	0.223
NCI-H460	1.1	1.2	0.932	1.01	1.02	1.39	0.784	0.842	0.928	0.83	0.989	0.942	1.1	0.64	0.0776		0.468	0.507	0.323	0.0945
EPLC-272H	0.951	1.04	0.705	0.901	0.84	0.891	0.853	0.753	0.739	0.748	0.648	0.609	0.774	0.678	0.573	0.348	0.377	0.413	0.33	0.296
SK-LU-1	0.851	0.866	0.617	0.998	0.661	0.923	1.06	0.826	0.777	0.826	0.71	0.888	0.923	0.783	0.801	0.617	0.659	0.699	0.642	0.603
NCI-H322M	0.612	0.62	0.521	0.53	0.502	1	0.842	0.792	0.687	0.809	0.961	0.864	0.973	0.917	0.834	0.722	0.642	0.655	0.794	0.612

Cell Line	relative viability (Idelalisib + Lapatinib; first compound 0.04 µM)	relative viability (Idelalisib + Lapatinib; first compound 0.1265 µM)	relative viability (Idelalisib + Lapatinib; first compound 0.4 µM)	relative viability (Idelalisib + Lapatinib; first compound 1.265 µM)	relative viability (Idelalisib + Lapatinib; first compound 4 µM)	relative viability (Idelalisib + Crizotinib; first compound 0.04 µM)	relative viability (Idelalisib + Crizotinib; first compound 0.1265 µM)	relative viability (Idelalisib + Crizotinib; first compound 0.4 µM)	relative viability (Idelalisib + Crizotinib; first compound 1.265 µM)	relative viability (Idelalisib + Crizotinib; first compound 4 µM)	relative viability (Pemetrexed + Foretinib; first compound 0.002 µM)	relative viability (Pemetrexed + Foretinib; first compound 0.006325 µM)	relative viability (Pemetrexed + Foretinib; first compound 0.02 µM)	relative viability (Pemetrexed + Foretinib; first compound 0.06325 µM)	relative viability (Pemetrexed + Foretinib; first compound 0.2 µM)	relative viability (Pemetrexed + Decitabine; first compound 0.002 µM)	relative viability (Pemetrexed + Decitabine; first compound 0.006325 µM)	relative viability (Pemetrexed + Decitabine; first compound 0.02 µM)	relative viability (Pemetrexed + Decitabine; first compound 0.06325 µM)	relative viability (Pemetrexed + Decitabine; first compound 0.2 µM)
NCI-H2405	1.16	1.07	0.897	1.14	1.04	0.846	0.814	0.708	0.76	0.692	1.06	1.03	1.09	1.03	1.08	0.717	0.649	0.691	0.687	0.685
NCI-H1666	0.549	0.641	0.419	0.505	0.456	0.953	1.03	0.809	0.964	0.721	0.942	0.996	0.929	0.953	0.832	0.637	0.724	0.712	0.594	0.612
NCI-H358	0.468	0.469	0.37	0.488	0.498	0.646	0.579	0.496	0.549	0.516	0.624	0.747	0.56	0.223	0.149	0.177	0.208	0.214	0.155	0.127
H3255	0.297	0.283	0.258	0.233	0.203	0.77	0.898	0.757	0.876	0.734	0.608	0.924	1.07	0.943	0.741	0.494	0.581	0.681	0.535	0.454
NCI-H2347	0.942	0.917	0.84	1.01	0.969	0.586	0.734	0.64	0.851	0.666	0.841	1.06	1.19	0.739	0.558	0.604	0.594	0.657	0.619	0.49
LK-2	1.03	0.98	0.63	0.978	0.965	0.264	0.205		0.215	0.235	1.09	0.984	1.25	1.2	1.11	0.277	0.358	0.259	0.251	0.263
HCC-15	0.828	0.847	0.818	0.983	0.894	0.809	0.842	0.72	0.885	0.762	0.987	0.987	1.06	0.645	0.219	0.483	0.604	0.684	0.406	0.191
SW 1573	1.17	1.06	0.913	1.12	1.27	0.794	0.682	0.836	0.832	0.833	0.909	0.808	0.951	0.979	0.855	0.577	0.662	0.615	0.53	0.525
NCI-H838	0.994	1.12	0.707	0.938	0.767	0.791	0.906	0.724	0.8	0.695	1.01	0.912	1.16	0.91	0.267	0.475	0.45	0.516	0.365	0.274
RERF-LC-KJ	0.763	0.872	0.814	0.83	0.789	0.94	0.845	0.847	0.785	0.861	0.84	0.84	0.866	0.857	0.749	0.609	0.753	0.801	0.721	0.415
NCI-H2170	0.285	0.267	0.242	0.29	0.29	1.23	1.18	1.07	1.07	0.983	0.918	1.02	0.999	1	1.02	0.436	0.48	0.458	0.462	0.459
PC-14	0.329	0.299	0.309	0.306	0.252	0.821	0.947	0.882	0.905	0.908	0.894	0.927	1	0.611	0.258	0.211	0.217	0.301	0.0896	0.0739
NCI-H2009	0.944	1.04	0.883	0.572	0.93	1.02	1.04	1.03	0.991	1.01	1.2	1.28	1.29	1.2	1.11	0.372	0.307	0.416	0.355	0.342
NCI-H1437	0.764	0.909	0.734	0.929	0.672	0.894	0.992	0.851	0.968	1.12		1.2	1.07	0.796	0.413	0.528	0.577	0.555	0.443	0.359
NCI-H647	1.13	1.27	0.834	0.95	0.546	1.43	1.03	0.815	0.859	0.7	0.946	1.07	1.33	0.989	0.386	0.263	0.366	0.515	0.39	0.233
SK-MES-1	0.467	0.445	0.432	0.443	0.396	1.06	0.959	0.888	0.876	0.789	0.883	0.83	1.04	0.907	0.868	0.369	0.331	0.408	0.421	0.367
